# Data: patent US11053230B2, “3-hydroxy-imidazolidin-4-one compounds as inhibitors of indoleamine 2,3-dioxygenase” (Netherlands Translational Research Center B.V., priority 2017, dated 2021)
# Values joined by “and” are separate entries in the source; they are usually repeats but may differ in a detail not shown here. Equal entries are not always repeated.
# Target: T1, IDO1 (Homo sapiens, UniProt P14902)
# T1 construct: Recombinant full-length IDO1 (Seegers, N., et al.) and all other assay components were diluted in IDO1 reaction buffer; made in house
# T1 sequence (P14902 whole entry): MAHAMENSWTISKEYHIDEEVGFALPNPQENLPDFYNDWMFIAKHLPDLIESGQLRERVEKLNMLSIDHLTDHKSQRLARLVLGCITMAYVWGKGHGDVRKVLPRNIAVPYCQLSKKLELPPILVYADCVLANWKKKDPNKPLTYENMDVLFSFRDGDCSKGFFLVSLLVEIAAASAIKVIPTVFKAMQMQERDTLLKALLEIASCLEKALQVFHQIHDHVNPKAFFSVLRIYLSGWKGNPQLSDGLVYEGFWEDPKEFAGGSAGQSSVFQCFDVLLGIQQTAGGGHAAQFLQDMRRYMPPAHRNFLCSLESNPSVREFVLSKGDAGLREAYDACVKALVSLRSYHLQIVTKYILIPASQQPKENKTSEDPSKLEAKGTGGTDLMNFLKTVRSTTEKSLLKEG
# Assay: Biochemical IDO1 assay (NFK GreenScreen)
# Settings: for IC50: NFK GreenScreen, 25 nM IDO1, 100 μM L-tryptophan, read-out: IC50, inhibitory potency on IDO1; for relative activity of the separated isomers: stated in the synthesis examples, assay not named
# Outline: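 Recombinant full-length IDO1 in 50 mM NaH2PO4 pH 7.0 with 0.05% Tween-20 and 1% glycerol converted 100 μM L-tryptophan (final) over 60 min at room temperature with compound, 0.3% DMSO.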
IC50,relative activity of the separated isomers,SMILES
≤ 1000 nM,–,"O=C1CN(C(=O)c2c(F)cccc2F)C(c2cc(I)cs2)N1O (stereo not shown) [Example 36, 1-(2,6-Difluorobenzoyl)-3-hydroxy-2-(4-iodo-2-thienyl)imidazolidin-4-one]"
≤ 1000 nM,–,"O=C1CN(C(=O)c2c(F)cc(-c3cccs3)cc2F)C(c2cc(Br)cs2)N1O (stereo not shown) [Example 87, 2-(4-Bromo-2-thienyl)-1-[2,6-difluoro-4-(2-thienyl)benzoyl]-3-hydroxy-imidazolidin-4-one]"
≤ 1000 nM,–,"O=C1CN(C(=O)c2c(F)ccc(-c3ccccc3)c2F)C(c2csc(Br)c2)N1O (stereo not shown) [Example 123, 2-(5-Bromo-3-thienyl)-1-(2,6-difluoro-3-phenyl-benzoyl)-3-hydroxy-imidazolidin-4-one]"
≤ 1000 nM,–,"O=C1CN(C(=O)c2c(F)ccc([N+](=O)[O-])c2F)C(c2cc(Br)cs2)N1O (stereo not shown) [Example 106, 2-(4-Bromo-2-thienyl)-1-(2,6-difluoro-3-nitro-benzoyl)-3-hydroxy-imidazolidin-4-one]"
≤ 5000 nM and 1000 to 5000 nM,–,"CCc1ccc(C2N(O)C(=O)CN2C(=O)c2c(F)cccc2F)s1 (stereo not shown) [Example 18, 1-(2,6-Difluorobenzoyl)-2-(5-ethyl-2-thienyl)-3-hydroxy-imidazolidin-4-one]"
≤ 1000 nM,–,"O=C1CN(Cc2c(F)cccc2F)C(c2cc(Br)cs2)N1O (stereo not shown) [Example 44, 2-(4-Bromo-2-thienyl)-1-[(2,6-difluorophenyl)methyl]-3-hydroxy-imidazolidin-4-one]"
≤ 1000 nM,–,"Cc1ccc(F)c(C(=O)N2CC(=O)N(O)C2c2cc(Br)cs2)c1F (stereo not shown) [Example 77, 2-(4-Bromo-2-thienyl)-1-(2,6-difluoro-3-methyl-benzoyl)-3-hydroxy-imidazolidin-4-one]"
≤ 5000 nM and 1000 to 5000 nM,–,"N#Cc1csc(C2N(O)C(=O)CN2C(=O)c2c(F)cccc2Cl)c1 (stereo not shown) [Example 29, 5-[1-(2-Chloro-6-fluoro-benzoyl)-3-hydroxy-4-oxo-imidazolidin-2-yl]thiophene-3-carbonitrile]"
≤ 5000 nM and 1000 to 5000 nM,–,"O=C1CN(C(=O)c2ccc(C(F)(F)F)cc2F)C(c2cc(Br)cs2)N1O (stereo not shown) [Example 64, 2-(4-Bromo-2-thienyl)-1-[2-fluoro-4-(trifluoromethyl)benzoyl]-3-hydroxy-imidazolidin-4-one]"
≤ 1000 nM,–,"NS(=O)(=O)NC1(C#Cc2cc(F)c(C(=O)N3CC(=O)N(O)C3c3cc(Br)cs3)c(F)c2)CC1 (stereo not shown) [Example 90, 2-(4-Bromo-2-thienyl)-1-[2,6-difluoro-4-[2-[1-(sulfamoylamino)cyclopropyl]ethynyl]benzoyl]-3-hydroxy-4-oxo-imidazolidine]"
≤ 5000 nM and 1000 to 5000 nM,–,"O=C1CN(C(=O)c2c(F)cccc2Cl)C(c2ccc(Br)s2)N1O (stereo not shown) [Example 3, 2-(5-Bromo-2-thienyl)-1-(2-chloro-6-fluoro-benzoyl)-3-hydroxy-imidazolidin-4-one]"
≤ 1000 nM,–,"COc1ccc(F)c(C(=O)N2CC(=O)N(O)C2c2csc(Br)c2)c1F (stereo not shown) [Example 104, 2-(5-Bromo-3-thienyl)-1-(2,6-difluoro-3-methoxy-benzoyl)-3-hydroxy-imidazolidin-4-one]"
≤ 1000 nM,–,"COc1ccc(F)c(C(=O)N2CC(=O)N(O)C2c2cc(Br)cs2)c1F (stereo not shown) [Example 75, 2-(4-Bromo-2-thienyl)-1-(2,6-difluoro-3-methoxy-benzoyl)-3-hydroxy-imidazolidin-4-one]"
≤ 1000 nM,–,"C#Cc1ccc(F)c(C(=O)N2CC(=O)N(O)C2c2cc(Br)cs2)c1F (stereo not shown) [Example 127, 2-(4-Bromo-2-thienyl)-1-(3-ethynyl-2,6-difluoro-benzoyl)-3-hydroxy-imidazolidin-4-one]"
≤ 1000 nM,–,"O=C1CN(C(=O)c2cccnc2Cl)C(c2cc(Br)cs2)N1O (stereo not shown) [Example 66, 2-(4-Bromo-2-thienyl)-1-(2-chloropyridine-3-carbonyl)-3-hydroxy-imidazolidin-4-one]"
≤ 1000 nM,–,"O=C1CN(C(=O)c2ccccc2F)C(c2ccc(Br)s2)N1O (stereo not shown) [Example 2, 2-(5-Bromo-2-thienyl)-1-(2-fluorobenzoyl)-3-hydroxy-imidazolidin-4-one]"
≤ 1000 nM,most active isomer,"O=C1CN(C(=O)c2c(F)cccc2F)C(c2csc(Br)c2)N1O (single isomer, unassigned) [Example 46b, 2-(5-Bromo-3-thienyl)-1-(2,6-difluorobenzoyl)-3-hydroxy-imidazolidin-4-one]"
≤ 1000 nM,most active isomer,"C[C@@H](c1ccccc1)N1CC(=O)N(O)C1c1csc(Br)c1 (single isomer, unassigned) [Example 121b]"
≤ 5000 nM and 1000 to 5000 nM,–,"O=C1CN(C(=O)c2ccccc2C(F)(F)F)C(c2cc(Br)cs2)N1O (stereo not shown) [Example 56, 2-(4-Bromo-2-thienyl)-3-hydroxy-1-[2-(trifluoromethyl)benzoyl]imidazolidin-4-one]"
≤ 1000 nM,–,"O=C1CN(C(=O)c2c(F)ccc(-c3ccc4ccccc4c3)c2F)C(c2cc(Br)cs2)N1O (stereo not shown) [Example 135, 2-(4-Bromo-2-thienyl)-1-[2,6-difluoro-3-(2-naphthyl)benzoyl]-3-hydroxy-imidazolidin-4-one]"
≤ 1000 nM,–,"O=C1CN(C(=O)c2c(F)cccc2F)C(c2cc(Br)cs2)N1O (stereo not shown) [Example 8, 2-(4-Bromo-2-thienyl)-1-(2,6-difluorobenzoyl)-3-hydroxy-imidazolidin-4-one]"
≤ 5000 nM and 1000 to 5000 nM,–,"O=C1CN(C(=O)c2c(F)cc(CCC3CCCCC3)cc2F)C(c2cc(Br)cs2)N1O (stereo not shown) [Example 92, 2-(4-Bromo-2-thienyl)-1-[4-(2-cyclohexylethyl)-2,6-difluoro-benzoyl]-3-hydroxy-imidazolidin-4-one]"

# The next lines start with the compound.
SMILES,IC50,relative activity of the separated isomers
"C#Cc1cc(F)c(C(=O)N2CC(=O)N(O)C2c2cc(Br)cs2)c(F)c1 (stereo not shown) [Example 38, 2-(4-Bromo-2-thienyl)-1-(4-ethynyl-2,6-difluoro-benzoyl)-3-hydroxy-imidazolidin-4-one]",≤ 1000 nM,–
"N#Cc1csc(C2N(O)C(=O)CN2C(=O)c2ccccc2F)c1 (stereo not shown) [Example 31, 5-[1-(2-Fluorobenzoyl)-3-hydroxy-4-oxo-imidazolidin-2-yl]thiophene-3-carbonitrile]",≤ 5000 nM and 1000 to 5000 nM,–
"O=C1CN(C(=O)c2c(F)cccc2F)C(c2ccc(Br)s2)N1O (stereo not shown) [Example 4, 2-(5-Bromo-2-thienyl)-1-(2,6-difluorobenzoyl)-3-hydroxy-imidazolidin-4-one]",≤ 1000 nM,–
"O=C1CN(C(=O)c2c(F)cc(-c3ccccc3)cc2F)C(c2cc(Br)cs2)N1O (stereo not shown) [Example 85, 2-(4-Bromo-2-thienyl)-1-(2,6-difluoro-4-phenyl-benzoyl)-3-hydroxy-imidazolidin-4-one]",≤ 1000 nM,–
"C[C@@H](c1ccccc1)N1CC(=O)N(O)C1c1ccc(Br)s1 (single isomer, unassigned) [Example 120b]",≤ 1000 nM,most active isomer
"O=C1CN(C(=O)c2ccccc2)C(c2cc(Br)cs2)N1O (stereo not shown) [Example 12, 1-Benzoyl-2-(4-bromo-2-thienyl)-3-hydroxy-imidazolidin-4-one]",≤ 5000 nM and 1000 to 5000 nM,–
"CSc1ccc(C2N(O)C(=O)CN2C(=O)c2ccccc2F)s1 (stereo not shown) [Example 13, 1-(2-Fluorobenzoyl)-3-hydroxy-2-(5-methylsulfanyl-2-thienyl)imidazolidin-4-one]",≤ 5000 nM and 1000 to 5000 nM,–
"O=C1CN(C(=O)c2c(F)cccc2F)C(c2cc(Br)cs2)N1O (single isomer, unassigned) [Example 48b, 2-(4-Bromo-2-thienyl)-1-(2,6-difluorobenzoyl)-3-hydroxy-imidazolidin-4-one]",≤ 1000 nM,most active isomer
"O=C1CN(Cc2ccccc2F)C(c2cc(Br)cs2)N1O (stereo not shown) [Example 43, 2-(4-Bromo-2-thienyl)-1-[(2-fluorophenyl)methyl]-3-hydroxy-imidazolidin-4-one]",≤ 1000 nM,–
"O=C1CN(C(=O)c2ccc(Cl)cc2Cl)C(c2cc(Br)cs2)N1O (stereo not shown) [Example 68, 2-(4-Bromo-2-thienyl)-1-(2,4-dichlorobenzoyl)-3-hydroxy-imidazolidin-4-one]",≤ 5000 nM and 1000 to 5000 nM,–
"O=C1CN(C(=O)c2c(F)ccc(C(F)(F)F)c2F)C(c2csc(Br)c2)N1O (stereo not shown) [Example 103, 2-(5-Bromo-3-thienyl)-1-[2,6-difluoro-3-(trifluoromethyl)benzoyl]-3-hydroxy-imidazolidin-4-one]",≤ 1000 nM,–
"O=C1CN(C(=O)c2cccc(Cl)c2Cl)C(c2cc(Br)cs2)N1O (stereo not shown) [Example 69, 2-(4-Bromo-2-thienyl)-1-(2,3-dichlorobenzoyl)-3-hydroxy-imidazolidin-4-one]",≤ 1000 nM,–
"Cn1cc(-c2ccc(F)c(C(=O)N3CC(=O)N(O)C3c3cc(Br)cs3)c2F)cn1 (stereo not shown) [Example 125, 2-(4-Bromo-2-thienyl)-1-[2,6-difluoro-3-(1-methylpyrazol-4-yl)benzoyl]-3-hydroxy-imidazolidin-4-one]",≤ 1000 nM,–
"O=C1CN(C(=O)c2c(F)cccc2F)C(c2cc(Br)cs2)N1O (single isomer, unassigned) [Example 48a, 2-(4-Bromo-2-thienyl)-1-(2,6-difluorobenzoyl)-3-hydroxy-imidazolidin-4-one]",≤ 1000 nM,less active isomer
"CC(C)(N)C#Cc1cc(F)c(C(=O)N2CC(=O)N(O)C2c2cc(Br)cs2)c(F)c1 (stereo not shown) [Example 81, 1-[4-(3-Amino-3-methyl-but-1-ynyl)-2,6-difluoro-benzoyl]-2-(4-bromo-2-thienyl)-3-hydroxy-imidazolidin-4-one]",≤ 1000 nM,–
"O=C1CN(C(=O)c2c(F)c(F)c(F)c(F)c2F)C(c2cc(Br)cs2)N1O (stereo not shown) [Example 63, 2-(4-Bromo-2-thienyl)-3-hydroxy-1-(2,3,4,5,6-pentafluorobenzoyl)imidazolidin-4-one]",≤ 1000 nM,–
"O=C1CN(C(=O)c2c(F)cccc2F)C(c2cc(Cl)cs2)N1O (stereo not shown) [Example 33, 2-(4-Chloro-2-thienyl)-1-(2,6-difluorobenzoyl)-3-hydroxy-imidazolidin-4-one]",≤ 1000 nM,–
"O=C1CN(C(=O)c2c(F)cccc2F)C(c2ccc(Br)s2)N1O (single isomer, unassigned) [Example 49b, 2-(5-Bromo-2-thienyl)-1-(2,6-difluorobenzoyl)-3-hydroxy-imidazolidin-4-one]",≤ 1000 nM,most active isomer
